# Measurements from patent US8476320B2, “Formulations for parenteral administration of amino-substituted (E)-2, 6-dialkoxystyryl 4-substituted benzylsulfones” (Onconova Therapeutics, Inc, priority 2007, dated 2013).
# How the values were obtained:
# [1] = Infusion bag compatibility study; assay type: physicochemical; settings: 75 mg/ml in PEG-400, bags containing 0.45% NaCl and 0.9% NaCl solutions
# Protocol: This example summarizes the results of a compatibility study of ON 01910.Na drug product (75 mg/ml in PEG-400) in IV Infusion Bags and Sets containing 0.45% NaCl and 0.9% NaCl solutions. The study consisted of preparing solutions of 80 mg of the ON 01910.Na in 250 ml 0.9% NaCl, and 800 mg of ON01910.Na in 250 ml 0.45% NaCl, and storing them in IV infusion bags for over 24 hours to determine if there is any product loss or instability. The solutions were also passed through infusion sets at a rate of approximately 2 ml per minute for 120 minutes and monitored for product loss or instability.
# The samples were analyzed by HPLC for Assay, % Recovery, and Impurities. Appearance, Osmolarity, and pH of the solutions were also monitored throughout the study. […]
# Five ml of solution were removed from each bag for analysis at the following time points: T=0, 1 hr, 2 hr, 4 hr, 8 hr, and 24.5 hr. Appearance, Assay, % Impurities, % Recovery, Osmolarity, and pH were analyzed at each time points.
# Results are shown in Tables 10-13. % Recovery is the percentage of drug substance as compared to the calculated amount, while % T0 is defined as the percentage of drug substance as compared to drug substance at the initial timepoint. […]
# [2] = Long term stability of 75 mg/mL ON 01910.Na in 100% PEG-400 (HPLC); assay type: physicochemical; settings: 100% PEG-400 for clinical use
# Protocol: ON 01910.Na IV solution was manufactured at a concentration of 75 mg/mL in 100% PEG-400. The finished product consisted of 3 mL of drug product aseptically filled into
# presterilized 5 mL vials. The manufacturing was in compliance with current Good Manufacturing Practices regulations.
# Visual Inspection (a) The zero-time data point is the same as the release data generated from the manufactured clinical lot. Analytical Methods: (a) HPLC—Chromatography is performed using a Phenomenex Luna C-18 (2), 5 micron
# (4.6 mm×250 mm, PN 00G-4252-E0) column at ambient conditions. The mobile phase used is 60%-0.1% trifluoroacetic acid in water; 40% acetonitrile. The flow rate is set at 2.0 ml/min Injection volume is 50 μL. Detection is accomplished by means of a UV/VIS detector at 230, 254, and 320 nm. Instrument control and data acquisition is facilitated using a Waters Millennium (V 2.15) software package. The external calibration is obtained using ON 01910.Na standard solutions prepared in 50:50 acetonitrile:water. This analytical method was validated.
# [3] = test system: patients with advanced solid tumors; test: Phase I dose escalation study by 2-hour intravenous infusion; assay type: in vivo; settings: iv 2 hour infusion, twice per week for 3 weeks, ten days off; no grade 2 or worse toxicities
# Protocol: Safety and efficacy of this formulation, for example, is tested in a Phase I clinical study, at The Johns Hopkins Sidney Kimmel Cancer Center, Baltimore, Md., i.e., “Phase I Dose Escalation Study Of ON 01910.Na By 2-Hour Intravenous Infusion In Patients With Advanced Solid Tumors”. U.S. FDA IND #66,780. The objectives of this study include an identification of a maximum tolerated dose (MTD) and a recommended dose for further clinical studies. A further object of the study is to establish a safety profile, i.e., to observe any toxicities. The patients in this study have advanced solid tumors that have failed conventional treatments, or for which no approved therapy exists. An object of the study is particularly to observe efficacy (anti-cancer effects).
# The patients are administered the preferred formulation described herein of the ON 01910.Na drug (properly diluted in intravenous solution) over a two hour period, twice per week, for three weeks. The patients are subsequently observed for […], to constitute a four week treatment cycle.
# This study started with a single patient at the first starting dose level of 80 mg per patient. If there is no grade 2 or worse drug-related toxicity (side effects) observed in the first four week cycle, then another patient may be dosed at the next higher dose level. The first patient was dosed at 80 mg per patient on Aug. 3, 2004. […]
# [4] = Accelerated stability of ON 01910.Na in formulations containing PEG at 75° C. (HPLC); assay type: physicochemical; settings: for % ON 01910.Na Remaining: 75° C.
# Protocol: (§1) The effect of dielectric constant on the stabilization of ON 01910.Na, for example, was investigated, for example, by preparing formulations containing propylene glycol and PEG 400. The accelerated stability studies were preformed at 75 and 90° C. […] The following tables summarizes the results:
# (§2) The samples were evaluated by an HPLC assay utilizing a Phenomenex Luna C-18, 5 micron (4.6 mm×250 mm) reverse phase column at ambient conditions. The mobile phase consisted of 60%-0.1% Trifluoroacetic Acid in water: 40% Acetonitrile. The flow rate was set to 2.0 ml/minute and the eluant was monitored at 230 nm
# [5] = Solubility of the Na salt
# [6] = Accelerated stability in formulations containing PEG or PG and pH 10 buffer at 90° C. (HPLC); assay type: physicochemical; settings: for % ON 01910.Na Remaining: 90° C.
# Protocol: as §1, §2
compound,measurement,setting,value
"COc1cc(OC)c(/C=C/S(=O)(=O)Cc2ccc(OC)c(NCC(=O)[O-])c2)c(OC)c1.[Na+] [ON 01910.Na, (E)-2,4,6-trimethoxystyryl-3-carboxymethylamino-4-methoxybenzylsulfone]",stability in IV infusion bags,[1],stable over 24 hours
same,expected degradation over a two year period,[2],not be any Significant Degradation
same,long term stability in the current formulation,[2],Extremely Stable
same,dose that can be safely administered,[3],≥ 2080 mg
same,% ON 01910.Na Remaining,"[4]; 0% PEG, 0 D",100.00%
same,% ON 01910.Na Remaining,"[4]; 0% PEG, 0.25 D",86.47%
same,% ON 01910.Na Remaining,"[4]; 0% PEG, 2 D",11.20%
same,% ON 01910.Na Remaining,"[4]; 0% PEG, 7 D",0.47%
same,% ON 01910.Na Remaining,"[4]; 0% PEG, 14 D",0.47%
same,% ON 01910.Na Remaining,"[4]; 0% PEG, 28 D",0.02%
same,% ON 01910.Na Remaining,"[4]; 25% PEG, 0 D",100.00%
same,% ON 01910.Na Remaining,"[4]; 25% PEG, 0.25 D",98.12%
same,% ON 01910.Na Remaining,"[4]; 25% PEG, 2 D",66.89%
same,% ON 01910.Na Remaining,"[4]; 25% PEG, 7 D",42.13%
same,% ON 01910.Na Remaining,"[4]; 25% PEG, 14 D",32.03%
same,% ON 01910.Na Remaining,"[4]; 25% PEG, 28 D",29.80%
same,% ON 01910.Na Remaining,"[4]; 50% PEG, 0 D",100.00%
same,% ON 01910.Na Remaining,"[4]; 50% PEG, 0.25 D",100.32%
same,% ON 01910.Na Remaining,"[4]; 50% PEG, 2 D",94.76%
same,% ON 01910.Na Remaining,"[4]; 50% PEG, 7 D",86.06%
same,% ON 01910.Na Remaining,"[4]; 50% PEG, 14 D",75.80%
same,% ON 01910.Na Remaining,"[4]; 50% PEG, 28 D",68.73%
same,stability on addition of propylene glycol or PEG 400 to an aqueous formulation,[4]; accelerated studies at 75 and 90° C.,drastically improved
same,solubility,[5],very soluble
same,stability on adjusting the pH of the aqueous medium above 8,[6],further improved
same,% ON 01910.Na Remaining,"[6]; PEG:Buffer, After 72 hours",94.22%
same,% ON 01910.Na Remaining,"[6]; PEG:Buffer, Control",100.00%
same,% ON 01910.Na Remaining,"[6]; PEG:Water, After 72 hours",22.28%
same,% ON 01910.Na Remaining,"[6]; PEG:Water, Control",100.00%
same,% ON 01910.Na Remaining,"[6]; PG:Buffer, After 72 hours",79.62%
same,% ON 01910.Na Remaining,"[6]; PG:Buffer, Control",100.00%
same,% ON 01910.Na Remaining,"[6]; PG:Water, After 72 hours",15.79%
same,% ON 01910.Na Remaining,"[6]; PG:Water, Control",100.00%
same,% ON 01910.Na Remaining,"[6]; PH 10 buffer, After 72 hours",50.18%
same,% ON 01910.Na Remaining,"[6]; PH 10 buffer, Control",100.00%
same,% ON 01910.Na Remaining,"[6]; Water, After 72 hours",5.36%
same,% ON 01910.Na Remaining,"[6]; Water, Control",100.00%
